{"source": "patent US11672786B2", "about": "“Methods of treating diseases associated with repeat instability” (The Hospital for Sick Children, priority 2016, dated 2023)", "key": {"[1]": {"system": "plasmid harboring (CAG)79●(CTG)79 repeats, R-loops", "assay": "in vitro transcription, R-loop formation, RNase A/H processing and R-loop stability", "type": "biochemical", "protocol": "Reaction products were then treated with RNase A (labeled “A”), to cleave all single-stranded RNAs, and resolved on 1% agarose gel. Control treatment with RNaseH (labeled “H”), eliminating RNA:DNA hybrids, was performed to reveal the RNA-free supercoiled DNAs. […] Reaction products then were resolved on 1% agarose gel. […] Double-R-loops were then treated with RNaseA or H (labeled “A” or “H”) and incubated with NA (50 μM). Reaction products were then resolved on 1% agarose gel. […] The position of supercoiled plasmid in dimer or monomer form is indicated by “SC”. The top “SC” represents linked dimers and the bottom “SC” represents monomers. In Panels C, D, and E, NA was either included in the transcription reaction (Panel C), only in the RNAse A/H reaction, only following the RNAse A/H clean-up.\nTranscription reactions were performed as previously described (Reddy et al., 2014, Nuc. Acids Res., 42:10473-87). Briefly, 500 ng of template DNA in 1× transcription buffer (Roche) and 1× bovine serum albumin (NEB) were mixed for 1 h with 20 U of the appropriate RNA polymerase: T7, T3 or T7+T3 (Roche), with or without NA 120 μM. Samples were purified and then treated with either 1 g of RNase A (Roche) alone or with 1 g of RNase A (Roche) and 1 U of E. coli RNase H (Roche), at room temperature for 30 min, in the presence or in the absence of NA (120 μM). All in vitro transcription reaction products were analyzed on 1% agarose gels run in 1×TBE buffer at 80 V for 3 h. Gels were subsequently stained with ethidium bromide (0.5 mg/ml) to allow visualization of total nucleic acid under ultraviolet (UV) light."}, "[2]": {"system": "single CAG slip-out", "assay": "in vitro repair assay by HeLa cell extracts, single repeat slip-out", "type": "biochemical, human", "excerpt": "Panel A of […] is a schematic of the in vitro repair assay. Starting DNAs and repair products released the repeat-containing fragment, which is resolved on PAGE and assessed on a molar level by Southern blotting and densitometry. Repair of different DNA substrates containing a long (CAG)20 slip-out (Panel B of FIG. 3) long (CTG)20 slip-out (Panel C of FIG. 3), a single CAG slip-out (Panel D of FIG. 3) or a single G-T mismatch (Panel E of FIG. 3), in the absence or in the presence of NA. Slipped-DNA substrates were prepared from hybrids of (CAG)50●(CTG)30, (CAG)30●(CTG)50 or of (CAG)50●(CTG)49. Repair of the G-T mismatch reconstitutes a HindIII restriction site, as shown schematically. Graphs show percentage repair efficiencies to repaired product relative to all repeat-containing fragments in the lane, values are normalized to the NA-free efficiency. […]\nTo determine how the binding of NA to slipped DNA structures affects repair, a series of circular slipped heteroduplex substrates was made with an excess of repeats with a nick located either 5′ or 3′ of the slip-out (FIG. 3). […] All these substrates were processed in […] by HeLa extracts and then were assessed for repair. Repair products were analyzed by Southern blotting, probed for the repeat-containing fragment, and compared with starting material, which permitted quantitative assessment of repair efficiency at a molar level. […]"}, "[3]": {"system": "plasmids pDM79EF, pDM79HF, pKN16 with SV40 origin of replication", "assay": "in vitro SV40 replication assay by HeLa cell extracts", "type": "biochemical, human", "conditions": "NA 7.5 μM or 15 μM", "protocol": "Three circular plasmids containing the SV40 origin of replication, and an expanded (CAG)79●(CTG)79 repeat tract (pDM79EF and pDM79HF) or no repeats (pKN16), were replicated in vitro by human HeLa cell extracts and added recombinant SV40 T-Ag, without or with NA (7.5 μM or 15 μM) treatment. […] Replication products were purified and linearized with BanHI. An equal portion of the reaction material was also digested with BamHI and DpnI; DpnI digests un-replicated and partially-replicated material, as shown in the schematic (top figure).\nThese templates containing repeats (pDM79EF and pDM79HF) and another substrate with SV40-ori and no-repeats (pKN16) were replicated in vitro by HeLa cell extract adding [α-^32P]dCTP and T-Antigen, as described in detail in Panigrahi et al. (2002, J. Biol. Chem., 277:13926-34) and Cleary et al. (2002, Nat. Genet., 31(1):37-46). Replication reaction was performed without or with NA (7.5 μM and 15 μM). Radioactive replication products were purified, linearized with BamHI, and treated with DpnI (for details see FIG. 9). […] Equal quantities of reaction products were resolved by electrophoresis on a 15-cm 1% agarose gel. The gel was run for 16 h at 4 V/cm in TBE buffer, dried, and exposed to Kodak film."}}, "data": [{"substance": "naphthyridine-azaquinolone", "values": [{"measurement": "effect on biophysical stability of R-loops", "setting": "[1]; NA 50 μM or 500 μM", "value": "did not affect the biophysical stability of R-loops"}, {"measurement": "effect on R-loop formation", "setting": "[1]; NA 120 μM during transcription", "value": "did not affect R-loop formation"}, {"measurement": "effect on transcription in vitro", "setting": "[1]; T3 or T7 RNA polymerases", "value": "nor did it affect transcription in vitro"}, {"measurement": "effect on repair of a single repeat CAG or CTG slip-out", "setting": "[2]", "value": "unaffected"}, {"measurement": "effect on replication efficiency and replication fork progression", "setting": "[3]", "value": "does not affect replication efficiency or replication fork progression"}]}]}
